Assay results as given in the kinase profiling compilation of Christmann-Franck et al. (2016).

Assays:
Assay in all cases: radiometric filter-binding kinase assay, Kinaseprofiler
[1] = tested on: HIPK2 (human), Q9H2X6 [I471N]; settings: ATP 10 µM
[2] = tested on: BLK (human), P51451 [M278V]; settings: ATP 45 µM
[3] = tested on: PAK2 (human), Q13177 [L150F, P225T, V383I; A339 del]; settings: ATP 90 µM
[4] = tested on: TGFBR1 (human), P36897 [T204D]; settings: ATP 10 µM
[5] = tested on: MET (human), P08581 [A1209G/V1290L]; settings: ATP 45 µM
[6] = tested on: PRKD1 (human), Q15139 [R135A]; settings: ATP 45 µM
PRKD1 (human), Q15139 [R135A], sequence (Q15139 whole entry, looked up, stated change not applied): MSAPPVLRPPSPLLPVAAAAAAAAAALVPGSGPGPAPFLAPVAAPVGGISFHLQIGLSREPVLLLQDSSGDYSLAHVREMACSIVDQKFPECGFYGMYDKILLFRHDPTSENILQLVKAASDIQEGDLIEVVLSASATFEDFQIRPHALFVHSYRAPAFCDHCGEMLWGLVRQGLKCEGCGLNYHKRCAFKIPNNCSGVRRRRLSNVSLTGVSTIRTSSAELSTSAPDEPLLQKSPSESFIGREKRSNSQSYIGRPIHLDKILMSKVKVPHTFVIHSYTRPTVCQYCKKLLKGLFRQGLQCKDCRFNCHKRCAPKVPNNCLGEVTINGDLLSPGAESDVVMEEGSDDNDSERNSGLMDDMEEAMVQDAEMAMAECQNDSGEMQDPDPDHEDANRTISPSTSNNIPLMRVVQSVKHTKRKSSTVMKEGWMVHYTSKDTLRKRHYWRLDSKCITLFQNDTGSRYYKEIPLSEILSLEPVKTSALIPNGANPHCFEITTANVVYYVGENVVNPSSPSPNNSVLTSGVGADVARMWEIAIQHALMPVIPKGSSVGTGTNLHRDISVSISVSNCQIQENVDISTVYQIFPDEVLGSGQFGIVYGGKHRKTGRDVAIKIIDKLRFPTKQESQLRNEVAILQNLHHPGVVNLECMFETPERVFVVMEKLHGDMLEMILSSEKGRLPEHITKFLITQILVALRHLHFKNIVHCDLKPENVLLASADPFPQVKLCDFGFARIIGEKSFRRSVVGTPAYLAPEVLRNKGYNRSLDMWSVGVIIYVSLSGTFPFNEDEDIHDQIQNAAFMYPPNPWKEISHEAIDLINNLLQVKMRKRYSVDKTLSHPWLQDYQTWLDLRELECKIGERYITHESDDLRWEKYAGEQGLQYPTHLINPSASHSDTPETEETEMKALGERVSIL

[7] = tested on: FLT4 (human), P35916 [V1128L/H1146R]; settings: ATP 200 µM
FLT4 (human), P35916 [V1128L/H1146R], sequence (P35916 whole entry, looked up, stated change not applied): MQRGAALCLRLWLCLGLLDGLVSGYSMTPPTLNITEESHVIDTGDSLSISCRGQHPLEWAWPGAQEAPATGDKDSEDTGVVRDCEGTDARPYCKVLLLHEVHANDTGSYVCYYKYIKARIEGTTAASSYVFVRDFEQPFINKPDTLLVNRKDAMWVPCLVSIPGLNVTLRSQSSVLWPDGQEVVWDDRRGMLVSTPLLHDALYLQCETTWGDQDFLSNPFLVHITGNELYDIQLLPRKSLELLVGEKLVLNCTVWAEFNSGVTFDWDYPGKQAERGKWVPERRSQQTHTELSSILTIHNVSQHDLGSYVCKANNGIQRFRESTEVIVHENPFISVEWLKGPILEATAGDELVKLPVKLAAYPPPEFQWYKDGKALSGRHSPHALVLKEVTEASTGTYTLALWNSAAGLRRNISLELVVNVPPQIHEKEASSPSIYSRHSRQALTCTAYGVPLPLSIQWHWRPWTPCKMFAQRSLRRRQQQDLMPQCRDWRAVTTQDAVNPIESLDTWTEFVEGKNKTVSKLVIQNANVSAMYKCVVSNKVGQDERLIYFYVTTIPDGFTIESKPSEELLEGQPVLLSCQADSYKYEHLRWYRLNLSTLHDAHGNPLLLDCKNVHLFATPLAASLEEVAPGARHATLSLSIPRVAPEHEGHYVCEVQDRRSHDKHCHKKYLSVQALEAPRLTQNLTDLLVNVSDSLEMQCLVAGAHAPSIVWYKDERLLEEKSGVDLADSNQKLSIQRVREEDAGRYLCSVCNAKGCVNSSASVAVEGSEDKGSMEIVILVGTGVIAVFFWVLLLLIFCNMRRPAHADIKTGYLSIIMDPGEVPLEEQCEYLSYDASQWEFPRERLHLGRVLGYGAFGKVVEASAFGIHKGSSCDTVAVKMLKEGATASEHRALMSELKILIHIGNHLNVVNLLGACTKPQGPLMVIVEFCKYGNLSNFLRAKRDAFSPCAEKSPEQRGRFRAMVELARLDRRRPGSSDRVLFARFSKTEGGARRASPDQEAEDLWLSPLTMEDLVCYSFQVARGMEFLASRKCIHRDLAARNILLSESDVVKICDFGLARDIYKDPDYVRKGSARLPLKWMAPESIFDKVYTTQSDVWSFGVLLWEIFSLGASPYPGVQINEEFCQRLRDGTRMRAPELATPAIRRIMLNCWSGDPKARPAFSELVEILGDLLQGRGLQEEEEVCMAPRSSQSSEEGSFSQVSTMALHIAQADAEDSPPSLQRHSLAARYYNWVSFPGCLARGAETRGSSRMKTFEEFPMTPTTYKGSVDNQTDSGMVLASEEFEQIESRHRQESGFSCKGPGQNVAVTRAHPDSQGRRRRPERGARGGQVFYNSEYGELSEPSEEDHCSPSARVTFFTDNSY

TGFBR1 (human), P36897 [T204D], sequence (P36897 whole entry T204D, looked up): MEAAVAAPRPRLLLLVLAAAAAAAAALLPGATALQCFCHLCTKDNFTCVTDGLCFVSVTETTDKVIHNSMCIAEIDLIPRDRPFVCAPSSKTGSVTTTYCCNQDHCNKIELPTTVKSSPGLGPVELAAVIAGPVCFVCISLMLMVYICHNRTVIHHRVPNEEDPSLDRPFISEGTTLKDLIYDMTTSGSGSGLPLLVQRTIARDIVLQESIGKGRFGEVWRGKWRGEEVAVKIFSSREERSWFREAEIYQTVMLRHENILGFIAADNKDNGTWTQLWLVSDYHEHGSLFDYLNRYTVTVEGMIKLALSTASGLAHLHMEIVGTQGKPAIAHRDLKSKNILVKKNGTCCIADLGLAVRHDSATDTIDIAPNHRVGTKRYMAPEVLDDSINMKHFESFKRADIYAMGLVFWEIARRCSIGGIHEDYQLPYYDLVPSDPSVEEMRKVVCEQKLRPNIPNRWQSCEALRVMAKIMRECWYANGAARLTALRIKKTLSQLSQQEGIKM
BLK (human), P51451 [M278V], sequence (P51451 whole entry, looked up, stated change not applied): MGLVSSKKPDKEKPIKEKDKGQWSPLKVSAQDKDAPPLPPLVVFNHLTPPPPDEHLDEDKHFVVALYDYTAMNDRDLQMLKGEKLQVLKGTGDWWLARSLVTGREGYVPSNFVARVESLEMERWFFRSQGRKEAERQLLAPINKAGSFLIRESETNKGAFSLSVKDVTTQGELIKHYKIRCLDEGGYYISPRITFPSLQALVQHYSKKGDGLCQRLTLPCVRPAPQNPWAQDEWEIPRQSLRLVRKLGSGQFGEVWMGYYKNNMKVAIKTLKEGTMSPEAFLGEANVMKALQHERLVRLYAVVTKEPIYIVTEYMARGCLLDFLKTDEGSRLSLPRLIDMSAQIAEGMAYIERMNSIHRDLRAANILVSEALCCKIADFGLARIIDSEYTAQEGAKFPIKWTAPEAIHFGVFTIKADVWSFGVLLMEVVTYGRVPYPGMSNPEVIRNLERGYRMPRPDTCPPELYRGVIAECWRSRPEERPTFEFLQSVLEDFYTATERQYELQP
HIPK2 (human), Q9H2X6 [I471N], sequence (Q9H2X6 whole entry, looked up, stated change not applied): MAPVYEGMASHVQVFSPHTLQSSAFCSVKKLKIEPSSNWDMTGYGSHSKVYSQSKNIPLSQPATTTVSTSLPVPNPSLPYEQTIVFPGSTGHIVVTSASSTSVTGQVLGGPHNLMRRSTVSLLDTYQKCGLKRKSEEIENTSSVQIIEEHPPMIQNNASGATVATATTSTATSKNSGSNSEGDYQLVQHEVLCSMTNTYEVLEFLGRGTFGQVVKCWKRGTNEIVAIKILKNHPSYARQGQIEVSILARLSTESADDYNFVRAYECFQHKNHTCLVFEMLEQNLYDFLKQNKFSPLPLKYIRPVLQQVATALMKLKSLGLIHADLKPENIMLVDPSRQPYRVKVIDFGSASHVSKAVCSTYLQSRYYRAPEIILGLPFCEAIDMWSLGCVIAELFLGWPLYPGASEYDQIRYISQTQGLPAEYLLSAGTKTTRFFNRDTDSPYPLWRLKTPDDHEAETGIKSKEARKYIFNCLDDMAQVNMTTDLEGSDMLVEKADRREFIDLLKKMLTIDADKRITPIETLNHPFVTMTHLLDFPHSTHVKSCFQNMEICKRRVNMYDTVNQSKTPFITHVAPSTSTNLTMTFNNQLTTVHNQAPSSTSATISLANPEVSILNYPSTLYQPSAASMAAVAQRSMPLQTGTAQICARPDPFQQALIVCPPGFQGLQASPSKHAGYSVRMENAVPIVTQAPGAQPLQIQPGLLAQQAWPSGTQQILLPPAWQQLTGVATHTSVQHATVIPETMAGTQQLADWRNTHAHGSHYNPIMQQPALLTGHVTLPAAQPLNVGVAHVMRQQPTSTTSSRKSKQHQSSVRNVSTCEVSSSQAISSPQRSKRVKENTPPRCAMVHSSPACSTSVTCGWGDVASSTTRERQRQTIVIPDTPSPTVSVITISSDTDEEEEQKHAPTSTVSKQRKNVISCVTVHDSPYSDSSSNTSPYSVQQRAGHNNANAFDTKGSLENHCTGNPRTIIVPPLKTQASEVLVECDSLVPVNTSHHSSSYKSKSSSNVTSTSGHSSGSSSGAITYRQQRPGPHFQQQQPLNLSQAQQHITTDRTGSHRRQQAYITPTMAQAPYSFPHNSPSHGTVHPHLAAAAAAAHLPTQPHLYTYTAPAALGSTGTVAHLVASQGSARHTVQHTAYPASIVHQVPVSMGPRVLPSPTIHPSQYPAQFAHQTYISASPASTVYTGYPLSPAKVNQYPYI
PAK2 (human), Q13177 [L150F, P225T, V383I; A339 del], sequence (Q13177 whole entry, looked up, stated change not applied): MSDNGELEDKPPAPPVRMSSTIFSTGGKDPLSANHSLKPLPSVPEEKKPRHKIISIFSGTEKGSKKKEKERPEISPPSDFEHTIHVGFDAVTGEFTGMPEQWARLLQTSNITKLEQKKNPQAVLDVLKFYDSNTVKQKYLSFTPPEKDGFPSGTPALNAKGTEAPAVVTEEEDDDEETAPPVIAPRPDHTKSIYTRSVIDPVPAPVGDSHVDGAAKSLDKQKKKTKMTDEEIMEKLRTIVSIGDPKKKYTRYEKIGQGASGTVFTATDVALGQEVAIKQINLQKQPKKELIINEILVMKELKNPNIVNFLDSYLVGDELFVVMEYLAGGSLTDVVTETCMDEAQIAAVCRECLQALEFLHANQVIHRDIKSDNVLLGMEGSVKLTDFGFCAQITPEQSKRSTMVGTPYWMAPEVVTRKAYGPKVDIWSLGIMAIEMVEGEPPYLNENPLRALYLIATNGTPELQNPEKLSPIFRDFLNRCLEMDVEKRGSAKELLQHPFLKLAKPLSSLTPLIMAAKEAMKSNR

residual activity ([1]; compound 1.0 µM) [%]	residual activity ([1]; compound 10.0 µM) [%]	residual activity ([2]; compound 1.0 µM) [%]	residual activity ([2]; compound 10.0 µM) [%]	residual activity ([3]; compound 1.0 µM) [%]	residual activity ([3]; compound 10.0 µM) [%]	residual activity ([4]; compound 1.0 µM) [%]	residual activity ([4]; compound 10.0 µM) [%]	residual activity ([5]; compound 1.0 µM) [%]	residual activity ([5]; compound 10.0 µM) [%]	residual activity ([6]; compound 1.0 µM) [%]	residual activity ([6]; compound 10.0 µM) [%]	residual activity ([7]; compound 1.0 µM) [%]	residual activity ([7]; compound 10.0 µM) [%]	Compound
55	15	97	45	96	86	88	74	87	75	32	-1	2	0	O=C1c2ccccc2-c2n[nH]c3cccc1c23
48	8	11	0	103	54	104	73	86	13	113	65	-1	1	O=C1Nc2ccccc2/C1=C1\Nc2ccccc2\C1=N/O
				100										O=C(Nc1cccc(Nc2nccc(Nc3cccc(C(F)(F)F)c3)n2)c1)C1CC1

Compound	residual activity ([1]; compound 1.0 µM) [%]	residual activity ([1]; compound 10.0 µM) [%]	residual activity ([2]; compound 1.0 µM) [%]	residual activity ([2]; compound 10.0 µM) [%]	residual activity ([3]; compound 1.0 µM) [%]	residual activity ([3]; compound 10.0 µM) [%]	residual activity ([4]; compound 1.0 µM) [%]	residual activity ([4]; compound 10.0 µM) [%]	residual activity ([5]; compound 1.0 µM) [%]	residual activity ([5]; compound 10.0 µM) [%]	residual activity ([6]; compound 1.0 µM) [%]	residual activity ([6]; compound 10.0 µM) [%]	residual activity ([7]; compound 1.0 µM) [%]	residual activity ([7]; compound 10.0 µM) [%]
CN[C@@H]1C[C@H]2O[C@@](C)([C@@H]1OC)n1c3ccccc3c3c4c(c5c6ccccc6n2c5c31)C(=O)NC4	52													
